Reference: patent US20250276995A1, “PRODUCTION METHOD FOR PEPTIDE COMPOUND” (CHUGAI SEIYAKU KABUSHIKI KAISHA, priority 2022, published 2025)

Assay: Verification of solubility of carbodiimide-derived urea in NMP and DMF
Format: physicochemical
Conditions: for Re-precipitation: 0.77 M, after 24 hours or more
Text: The concentration of carbodiimide at the time of preactivation performed in the elongation steps of Reference Example 2-3 and Examples 2-4 and 2-5 was 0.77 mol/L. To confirm the risk of precipitation in case that all carbodiimide is converted to urea, the solubility in NMP and DMF was confirmed according to the following procedure, using the DIC-derived urea with which precipitates were confirmed in Reference Examples 2-3 and the DsBC-derived urea with which no precipitates were confirmed in Examples 2-4 and 2-5.
Into 1.5 mL vials with a screw cap, DIC urea (compound SS05) and DsBC urea (compound SS06) synthesized in Example 1-3 were weighed and placed as described in Table 11, and NMP or DMF was added to be each concentration. The mixture was stirred at room temperature for 5 minutes or more, and then allowed to stand to confirm whether the urea was dissolved or not. […]

[1] = solvent DMF, concentration 0.77 M (0.77 mol/L), room temperature
[2] = solvent NMP, concentration 0.77 M (0.77 mol/L), room temperature

Re-precipitation (DMF) | Re-precipitation (NMP) | Dissolved or not [1] | Dissolved or not [2] | Dissolved or not (in DMF at 0.17 M or more) | Dissolved or not (in NMP at a concentration of 0.34 M or more) | Dissolved or not (solvent DMF, concentration 0.17 M, room temperature) | Dissolved or not (solvent DMF, concentration 0.34 M, room temperature) | Dissolved or not (solvent DMF, concentration 0.38 M, room temperature) | Dissolved or not (solvent DMF, concentration 0.51 M, room temperature) | Dissolved or not (solvent NMP, concentration 0.17 M, room temperature, stirred 5 minutes or more then allowed to stand) | Dissolved or not (solvent NMP, concentration 0.34 M, room temperature) | Dissolved or not (solvent NMP, concentration 0.38 M, room temperature) | Dissolved or not (solvent NMP, concentration 0.51 M, room temperature) | Dissolved or not (solvent DMF, concentration 0.77 M (0.77 mol/L), room temperature, listed as DsBC Urea (SS06)) | Dissolved or not (solvent NMP, concentration 0.77 M (0.77 mol/L), room temperature, listed as DsBC Urea (SS06)) | SMILES
no re-precipitation was confirmed | no re-precipitation was confirmed | completely dissolved | completely dissolved |  |  |  |  |  |  |  |  |  |  |  |  | CCNC(=O)NC(C)(C)C [SS07, 1-(tert-butyl)-3-ethylurea]
 |  | not fully dissolved | not fully dissolved | not fully dissolved | not fully dissolved | not fully dissolved | not fully dissolved | not fully dissolved | not fully dissolved | dissolved | not fully dissolved | not fully dissolved | not fully dissolved |  |  | CC(C)NC(=O)NC(C)C [SS05, 1,3-Diisopropylurea]
no re-precipitation was confirmed | no re-precipitation was confirmed | completely dissolved | completely dissolved |  |  |  |  |  |  |  |  |  |  | dissolved | dissolved | CCC(C)NC(=O)NC(C)CC (stereo not shown) [SS06, 1,3-di-sec-butylurea]
